Assay results published in patent US6875743B1, “Cell adhesion inhibitors” (Biogen, Inc., priority 1996, dated 2005).
* marks the point of attachment. 2‑MPUPA = 4-(N′-(2-methylphenyl)urea)phenylacetyl, Cc1ccccc1NC(=O)Nc1ccc(CC(=O)*)cc1; Quinaldoyl = O=C(c1ccc2ccccc2n1)*; Boc = CC(C)(C)OC(=O)*; Bz = O=C(c1ccccc1)*; Ahx = NCCCCCC(=O)O

B1: Compound 339 (peptide)
peptide: {2‑MPUPA}-VLPD-OH
SMILES: Cc1ccccc1NC(=O)Nc1ccc(CC(=O)N[C@H](C(=O)N[C@@H](CC(C)C)C(=O)N2CCC[C@H]2C(=O)N[C@@H](CC(=O)O)C(=O)O)C(C)C)cc1
B2: Compound 315 (peptide)
peptide: {2‑MPUPA}-MDVP-OH
SMILES: CSCC[C@H](NC(=O)Cc1ccc(NC(=O)Nc2ccccc2C)cc1)C(=O)N[C@@H](CC(=O)O)C(=O)N[C@H](C(=O)N1CCC[C@H]1C(=O)O)C(C)C
B3: Compound 168 (peptide)
peptide: Quinaldoyl-LDVM-OMe
SMILES: COC(=O)[C@H](CCSC)NC(=O)[C@@H](NC(=O)[C@H](CC(=O)O)NC(=O)[C@H](CC(C)C)NC(=O)c1ccc2ccccc2n1)C(C)C
B4: Compound 186 (peptide)
peptide: Quinaldoyl-LDVM-OH
SMILES: CSCC[C@H](NC(=O)[C@@H](NC(=O)[C@H](CC(=O)O)NC(=O)[C@H](CC(C)C)NC(=O)c1ccc2ccccc2n1)C(C)C)C(=O)O
B5: Compound 167 (peptide)
peptide: Boc-LDVM-OMe
SMILES: COC(=O)[C@H](CCSC)NC(=O)[C@@H](NC(=O)[C@H](CC(=O)O)NC(=O)[C@H](CC(C)C)NC(=O)OC(C)(C)C)C(C)C
B6: Compound 202 (peptide)
peptide: {2‑MPUPA}-K(Ahx)DVP-OH
SMILES: Cc1ccccc1NC(=O)Nc1ccc(CC(=O)N[C@@H](CCCCNC(=O)CCCCCN)C(=O)N[C@@H](CC(=O)O)C(=O)N[C@H](C(=O)N2CCC[C@H]2C(=O)O)C(C)C)cc1
B7: Compound 153 (peptide)
peptide: Bz-FLDV-OH
SMILES: CC(C)C[C@H](NC(=O)[C@H](Cc1ccccc1)NC(=O)c1ccccc1)C(=O)N[C@@H](CC(=O)O)C(=O)N[C@H](C(=O)O)C(C)C
B8: Compound 338 (peptide)
peptide: {2‑MPUPA}-LDVPST-OH
SMILES: Cc1ccccc1NC(=O)Nc1ccc(CC(=O)N[C@@H](CC(C)C)C(=O)N[C@@H](CC(=O)O)C(=O)N[C@H](C(=O)N2CCC[C@H]2C(=O)N[C@@H](CO)C(=O)N[C@H](C(=O)O)[C@@H](C)O)C(C)C)cc1
B9: Compound 341 (peptide)
peptide: {2‑MPUPA}-LPVD-OH
SMILES: Cc1ccccc1NC(=O)Nc1ccc(CC(=O)N[C@@H](CC(C)C)C(=O)N2CCC[C@H]2C(=O)N[C@H](C(=O)N[C@@H](CC(=O)O)C(=O)O)C(C)C)cc1

Each molecule was assayed against T1, VLA4 (Homo sapiens, UniProt P05556+P13612) (assay: Inhibition of VLA4-dependent adhesion to BSA-CS1). Conditions: binding of BCECF-labelled Ramos cells to BSA-CS1 coated wells, 2 mM MnCl2; read-out: IC50.
T1 construct: endogenous in cells; host or cells: Ramos cells
T1 sequence (P13612 34-1032): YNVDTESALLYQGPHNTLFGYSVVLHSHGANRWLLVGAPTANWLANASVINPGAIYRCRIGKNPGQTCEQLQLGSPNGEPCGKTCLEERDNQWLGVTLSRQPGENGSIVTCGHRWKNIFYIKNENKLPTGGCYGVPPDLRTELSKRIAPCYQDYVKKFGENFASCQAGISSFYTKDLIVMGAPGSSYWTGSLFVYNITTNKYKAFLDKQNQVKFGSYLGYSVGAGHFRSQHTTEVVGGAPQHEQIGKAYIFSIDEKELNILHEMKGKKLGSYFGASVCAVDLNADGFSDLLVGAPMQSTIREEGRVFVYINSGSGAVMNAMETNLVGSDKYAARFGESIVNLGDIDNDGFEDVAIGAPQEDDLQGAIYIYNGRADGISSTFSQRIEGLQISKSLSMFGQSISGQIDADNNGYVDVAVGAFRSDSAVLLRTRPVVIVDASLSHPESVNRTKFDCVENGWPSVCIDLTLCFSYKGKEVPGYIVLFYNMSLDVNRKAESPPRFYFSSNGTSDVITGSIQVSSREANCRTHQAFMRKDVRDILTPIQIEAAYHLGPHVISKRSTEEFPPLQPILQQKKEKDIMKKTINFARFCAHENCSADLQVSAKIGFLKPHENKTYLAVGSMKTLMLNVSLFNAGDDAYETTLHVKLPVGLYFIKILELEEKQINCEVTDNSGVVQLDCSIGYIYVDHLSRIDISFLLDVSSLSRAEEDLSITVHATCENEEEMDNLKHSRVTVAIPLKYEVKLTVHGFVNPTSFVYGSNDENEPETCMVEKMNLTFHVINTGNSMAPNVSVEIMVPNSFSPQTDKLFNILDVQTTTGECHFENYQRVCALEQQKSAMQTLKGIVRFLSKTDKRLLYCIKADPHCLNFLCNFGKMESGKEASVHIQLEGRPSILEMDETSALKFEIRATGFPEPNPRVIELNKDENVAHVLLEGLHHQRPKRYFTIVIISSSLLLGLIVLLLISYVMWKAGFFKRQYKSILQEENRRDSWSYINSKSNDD
T1 sequence (P05556 21-798): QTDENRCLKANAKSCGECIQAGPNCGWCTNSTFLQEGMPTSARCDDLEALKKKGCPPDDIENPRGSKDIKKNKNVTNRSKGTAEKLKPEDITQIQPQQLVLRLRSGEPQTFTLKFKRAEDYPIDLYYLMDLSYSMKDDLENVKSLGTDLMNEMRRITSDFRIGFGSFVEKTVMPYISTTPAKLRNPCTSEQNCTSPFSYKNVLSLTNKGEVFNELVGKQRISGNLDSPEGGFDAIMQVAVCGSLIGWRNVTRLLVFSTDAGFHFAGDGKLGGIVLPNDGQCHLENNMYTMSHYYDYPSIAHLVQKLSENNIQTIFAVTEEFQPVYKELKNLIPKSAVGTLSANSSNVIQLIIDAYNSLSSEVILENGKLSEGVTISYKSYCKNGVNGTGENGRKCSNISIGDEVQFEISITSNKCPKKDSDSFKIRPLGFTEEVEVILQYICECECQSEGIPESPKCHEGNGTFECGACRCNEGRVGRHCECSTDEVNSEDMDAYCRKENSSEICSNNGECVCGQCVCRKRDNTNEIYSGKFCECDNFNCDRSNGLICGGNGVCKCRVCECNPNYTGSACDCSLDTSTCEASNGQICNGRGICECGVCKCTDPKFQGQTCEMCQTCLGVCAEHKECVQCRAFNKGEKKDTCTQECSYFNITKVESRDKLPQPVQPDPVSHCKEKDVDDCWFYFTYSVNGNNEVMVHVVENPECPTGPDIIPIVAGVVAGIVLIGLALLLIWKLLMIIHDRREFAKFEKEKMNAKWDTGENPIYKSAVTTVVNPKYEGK
Type: cell-based
In the case of Cc1c(C(=O)N[C@@H](CC(C)C)C(=O)N[C@@H](CC(=O)O)C(=O)N[C@H](C(=O)O)C(C)C)cnn1-c1ccccc1 [Compound 369], the IC50 is reported as > 10 µM.
In the case of Cc1ccc2nc(C(=O)N[C@@H](CC(C)C)C(=O)N[C@@H](CC(=O)O)C(=O)N[C@H](C(=O)O)C(C)C)[nH]c(=O)c2c1 [Compound 370], the IC50 is reported as > 10 µM.
CC(C)C[C@H](NC(=O)c1coc2c1C(=O)CCC2)C(=O)N[C@@H](CC(=O)O)C(=O)N[C@H](C(=O)O)C(C)C [Compound 371] was tested, and the IC50 was 0.05 to 10 µM.
For CC(C)C[C@H](NC(=O)c1cncc(C#Cc2ccccc2)c1)C(=O)N[C@@H](CC(=O)O)C(=O)N[C@H](C(=O)O)C(C)C [Compound 372], the IC50 was > 10 µM.
With CC(C)C[C@H](NC(=O)c1cccnc1Sc1ccccc1)C(=O)N[C@@H](CC(=O)O)C(=O)N[C@H](C(=O)O)C(C)C [Compound 373] the IC50 was > 10 µM.
With CCCc1ccc(C(=O)N[C@@H](CC(C)C)C(=O)N[C@@H](CC(=O)O)C(=O)N[C@H](C(=O)O)C(C)C)cc1 [Compound 374] the IC50 was > 10 µM.
For CC(C)C[C@H](NC(=O)c1csc(-c2cccnc2)n1)C(=O)N[C@@H](CC(=O)O)C(=O)N[C@H](C(=O)O)C(C)C [Compound 375], the IC50 was 0.05 to 10 µM.
For CC(C)C[C@H](NC(=O)c1csc(-c2ccncc2)n1)C(=O)N[C@@H](CC(=O)O)C(=O)N[C@H](C(=O)O)C(C)C [Compound 376], the IC50 was > 10 µM.
For CC(C)C[C@H](NC(=O)Nc1cnc2ccccc2n1)C(=O)N[C@@H](CC(=O)O)C(=O)N[C@H](C(=O)O)C(C)C [Compound 380], the IC50 was > 10 µM.
CC(C)C[C@H](NC(=O)C1COc2ccc(Cl)cc2C1)C(=O)N[C@@H](CC(=O)O)C(=O)N[C@H](C(=O)O)C(C)C (stereo partly shown) [Compound 386] was tested, and the IC50 was > 10 µM.
In the case of CC(C)C[C@H](NC(=O)c1ccc2c(c1)CCO2)C(=O)N[C@@H](CC(=O)O)C(=O)N[C@H](C(=O)O)C(C)C [Compound 387], the IC50 is reported as > 10 µM.
With CC(C)C[C@H](NC(=O)CC1CC2CCC1C2)C(=O)N[C@@H](CC(=O)O)C(=O)N[C@H](C(=O)O)C(C)C (stereo partly shown) [Compound 390] the IC50 was > 10 µM.
CC(C)C[C@H](NC(=O)c1c2c(nc3ccccc13)CCCC2)C(=O)N[C@@H](CC(=O)O)C(=O)N[C@H](C(=O)O)C(C)C [Compound 391] was tested, and the IC50 was > 10 µM.
For COc1ccc2cc(C(C)C(=O)N[C@@H](CC(C)C)C(=O)N[C@@H](CC(=O)O)C(=O)N[C@H](C(=O)O)C(C)C)ccc2c1 (stereo partly shown) [Compound 394], the IC50 was > 10 µM.
With CC(C)C[C@H](NC(=O)COc1ccc2ccccc2c1)C(=O)N[C@@H](CC(=O)O)C(=O)N[C@H](C(=O)O)C(C)C [Compound 395] the IC50 was > 10 µM.
In the case of CC(C)C[C@H](NC(=O)C1C2CC3CC(C2)CC1C3)C(=O)N[C@@H](CC(=O)O)C(=O)N[C@H](C(=O)O)C(C)C (stereo partly shown) [Compound 398], the IC50 is reported as > 10 µM.
For CCn1cc(C(=O)N[C@@H](CC(C)C)C(=O)N[C@@H](CC(=O)O)C(=O)N[C@H](C(=O)O)C(C)C)c(=O)c2ccc(C)nc21 [Compound 403], the IC50 was > 10 µM.
With CC(C)C[C@H](NC(=O)Cc1cccs1)C(=O)N[C@@H](CC(=O)O)C(=O)N[C@H](C(=O)O)C(C)C [Compound 404] the IC50 was > 10 µM.
In the case of CC(C)C[C@H](NC(=O)c1ccc(C(C)C)cc1)C(=O)N[C@@H](CC(=O)O)C(=O)N[C@H](C(=O)O)C(C)C [Compound 405], the IC50 is reported as > 10 µM.
CC(C)C[C@H](NC(=O)c1ccc2c(c1)OCO2)C(=O)N[C@@H](CC(=O)O)C(=O)N[C@H](C(=O)O)C(C)C [Compound 406] was tested, and the IC50 was > 10 µM.
For CC(C)C[C@H](NC(=O)c1ccc(-c2ccccn2)s1)C(=O)N[C@@H](CC(=O)O)C(=O)N[C@H](C(=O)O)C(C)C [Compound 407], the IC50 was > 10 µM.
With CC(C)C[C@H](NC(=O)N1c2ccccc2CCc2ccccc21)C(=O)N[C@@H](CC(=O)O)C(=O)N[C@H](C(=O)O)C(C)C [Compound 408] the IC50 was > 10 µM.
CNC(=O)[C@@H](CC(C)C)NC(=O)[C@H](CC(=O)O)NC(=O)[C@@H]1CCCN1C(=O)Cc1ccc(NC(=O)Nc2ccccc2C)cc1 [Compound 409] was tested, and the IC50 was 0.05 to 10 µM.
COC(=O)[C@@H](CC(C)C)NC(=O)[C@H](CC(=O)O)NC(=O)[C@@H]1CCCN1C(=O)Cc1ccc(NC(=O)Nc2ccccc2C)cc1 [Compound 410] gave an IC50 of 0.05 to 10 µM.
In the case of Cc1ccccc1NC(=O)Nc1ccc(CC(=O)N2CCC[C@H]2C(=O)N[C@@H](CC(=O)O)C(=O)N[C@H](CC(C)C)C(=O)O)cc1 [Compound 411], the IC50 is reported as < 0.05 µM.
Work on Cc1ccccc1NC(=O)Nc1ccc(CC(=O)N2CCC2C(=O)N[C@@H](CC(=O)O)C(=O)N[C@H](CC(C)C)C(=O)O)cc1 (stereo partly shown) [Compound 412] yielded an IC50 of 0.05 to 10 µM.
In the case of CNC(=O)[C@H](CCC(=O)O)NC(=O)[C@@H]1CCCN1C(=O)Cc1ccc(NC(=O)Nc2ccccc2C)cc1 [Compound 413], the IC50 is reported as 0.05 to 10 µM.
For CNC(=O)[C@@H](CC(C)C)NC(=O)[C@H](CCC(=O)O)NC(=O)[C@@H]1CCCN1C(=O)Cc1ccc(NC(=O)Nc2ccccc2C)cc1 [Compound 414], the IC50 was 0.05 to 10 µM.
With Cc1ccccc1NC(=O)Nc1ccc(CC(=O)N2CCC[C@H]2C(=O)N[C@@H](CCC(=O)O)C(=O)N[C@H](CC(C)C)C(=O)O)cc1 [Compound 415] the IC50 was 0.05 to 10 µM.
For Cc1ccccc1NC(=O)Nc1ccc(CC(=O)N2CCC[C@H]2C(=O)N[C@@H](CCC(=O)O)C(=O)O)cc1 [Compound 416], the IC50 was 0.05 to 10 µM.

The molecules below were run against T2, α4β1 integrin, very late antigen-4 (VLA-4) (UniProt P13612 34-1032; P05556 21-798, limits assumed) (assay: inhibition of Ramos cell adhesion to BSA-CS1). Conditions: not given.
T2 construct: whole, on cells; also called CD49d/CD29
T2 sequence (P13612 34-1032 limits assumed, chain 1 of 2): as the sequence (P13612 34-1032) above
T2 sequence (P05556 21-798 limits assumed, chain 2 of 2): as the sequence (P05556 21-798) above
Procedure: Following labelling, the cells were washed twice in assay buffer (24 mM TRIS, 137 mM NaCl, 2.7 mM KCl, pH 7.4, containing 0.1% BSA and 2 mM glucose) to remove any cations originating from the culture medium. The cells were then resuspended in assay buffer to 4×10⁶ cells/mL and 2 mM MnCl_2 was added to upregulate VLA4 on the surface of the cells.
Immediately prior to running the assay, we removed the BSA blocking solution from the 96-well plates and washed the wells with 100 μL of assay buffer. We then added to each well 25 μL of test cell adhesion inhibitory compound at 2× the final concentration and 25 μL of the labelled Ramos cells. […] Each concentration of compound was tested in triplicate. The compound and cells are allowed to incubate for 30 minutes at room temperature.
Percent binding is calculated by the formula: […]
For B1, the IC50 was > 10 µM.
With {3‑methoxy‑4‑(N'-phenylurea)phenylacetyl}-MDVP-OH [Compound 2] the IC50 was < 0.05 µM.
B2 was tested, and the IC50 was < 0.05 µM.
B3 was tested, and the IC50 was 0.05 to 10 µM.
With B4 the IC50 was > 10 µM.
{4‑(N'-2-hydroxyphenylurea)phenylacetyl}-MDVP-OH [Compound 146] was tested, and the IC50 was < 0.05 µM.
For B5, the IC50 was > 10 µM.
In the case of B6, the IC50 is reported as 0.05 to 10 µM.
With Ac-FLDV-OH [Compound 152] the IC50 was > 10 µM.
For {2‑MPUPA}-LDVPS-OH [Compound 337], the IC50 was < 0.05 µM.
For B7, the IC50 was > 10 µM.
For B8, the IC50 was < 0.05 µM.
In the case of B9, the IC50 is reported as > 10 µM.
